From patent publication US8383616B2, “Aryl isoxazole compounds with antitumoural activities” (Sigma-Tau Industrie Farmaceutiche Riunite SpA, priority 2008, dated 2013) come the findings set out here.

One data set concerns the target T1, Hsp90 (Homo sapiens, UniProt P07900).
T1 construct: purchased Stressgen SPP-776
Briefly: Fluorescence polarization (FP) binding assay, displacement of GM-BODIPY. The settings on record: GM-BODIPY tracer, 125 nM Hsp90, 4 h at 4° C.; read-out: F.P. binding assay IC50. The procedure:
Fluorescence Polarization (FP)
GM-BODIPY (PerkinElmer, CUSN60342000MG) was previously dissolved in DMSO to obtain 10 mM stock solutions and kept at −20° C. until use.
The compounds were previously dissolved in DMSO to obtain stock solutions and kept at −20° C. The day of experiment, the compounds were prepared by serial dilutions in HFB. Before each use, 0.1 mg/ml Bovine Gamma globulin and 2 mM DTT were freshly added.
The plate was mixed on a shaker at 4° C. for 4 hours, and the FP values in mP (millipolarization units) were recorded. […] Curve fitting was performed using Prism GraphPad software program (GraphPad software, Inc., San Diego, Calif.).
Curve fitting was performed using Prism GraphPad software program (GraphPad software, Inc., San Diego, Calif.).

Data set [1] has as its system NCI-H460 non-small cell lung carcinoma cells. As to the kind of experiment: Cytotoxicity assay (sulphorodamine B test), NCI-H460. Format: cell-based. The procedure: To evaluate the effect of the compounds on cells survival, the sulphorodamine B test was used. To test the effects of the compounds on cell growth, NCI-H460 non-small cell lung carcinoma cells were used. Tumour cells were grown in RPMI 1640 containing 10% fetal bovine serum (GIBCO).
(§1) Tumour cells were seeded in 96-well tissue culture plates at approximately 10% confluence and were allowed to attach and recover for at least 24 h. Varying concentrations of the drugs were then added to each well to calculate their IC50 value (the concentration which inhibits the 50% of cell survival). The plates were incubated at 37° C. for 72 h. At the end of the treatment, the plates were washed by removal of the supernatant and addition of phosphate buffered saline (PBS) 3 times. 200 μl PBS and 50 μl of cold 80% trichloroacetic acid (TCA) were added. The plates were incubated on ice for at least 1 h. TCA was removed, the plates were washed 3 times by immersion in distilled water and dried on paper and at 40° C. for 5 min. Then 200 μl of 0.4% sulphorodamine B in 1% acetic acid were added. The plates were incubated at RT for 30 min. Sulphorodamine B was removed, the plates were washed by immersion in 1% acetic acid for 3 times, then they were dried on paper and at 40° C. for 5 min. Then, 200 μl Tris 10 mM were added, the plates were kept under stirring for 20 min. The cell survival was determined as optical density by a Multiskan spectrofluorimeter at 540 nm. The amount of cells killed was calculated as the percentage decrease in sulphorodamine B binding compared with control cultures.
(§2) The IC50 values were calculated with the “ALLFIT” program.
(§3) The antiproliferative IC50 was evaluated as drug concentration required for 50% reduction of cell growth as compared with untreated controls after 72-h exposure to the drug. The IC50±SD values reported were calculated by ALLFIT program.

In data set [2] the test system is human epithelial carcinoma cell line A431. As to the kind of experiment: Cytotoxicity assay (sulphorodamine B test), A431. It counts as cell-based. The procedure: as §1, §2
The antiproliferative activity of novel Hsp90 inhibitors was evaluated on NCI-H460 non-small cell lung carcinoma cells and on a human epithelial carcinoma cell line A431.
as §3

[3] abbreviates: Homo sapiens, NCI-H460, 72-h exposure.
The mark [4] stands for this setting: Homo sapiens, A-431, 72-h exposure.

Where a name gives a salt, the structure may show the parent alone.

Take “5-(2,4-dihydroxy-5-isopropyl-phenyl)-4-(4-morpholin-4-yl-methyl-benzoyl amino)-isoxazole-3-carboxylic acid ethylamide hydrochloride [Example 18]”: the half-inhibitory concentration (IC50) (on Hsp90; in data set [1] (72-h exposure); in data set [2] (72-h exposure)) was under 100 nM in each case.
In the case of `CCNC(=O)c1noc(-c2cc(Cl)c(O)cc2O)c1NC(C)=O` [Example 1, 4-acetylamino-5-(5-chloro-2,4-dihydroxy-phenyl)-isoxazole-3-carboxylic acid ethylamide], the IC50 on Hsp90 was under 100 nM; in data set [1] (setting [3]), 1000 to 10000 nM; in data set [2] (setting [4]), 1000 to 10000 nM.
In the case of `CCNC(=O)c1noc(-c2cc(Cl)c(O)cc2O)c1NC(=O)c1ccc(OC)cc1` [Example 2, 5-(5-chloro-2,4-dihydroxy-phenyl)-4-(4-methoxy-benzoylamino)-isoxazole-3-carboxylic acid ethylamide], the IC50 was in the range of 100 to 1000 nM on Hsp90, 1000 to 10000 nM in data set [1] (setting [3]) and 100 to 1000 nM in data set [2] (setting [4]).
In the case of `CCNC(=O)c1noc(-c2cc(Cl)c(O)cc2O)c1NC(=O)c1ccc(OC)c(OC)c1` [Example 3, 5-(5-chloro-2,4-dihydroxy-phenyl)-4-(3,4-dimethoxy-benzoylamino)-isoxazole-3-carboxylic acid ethylamide], the IC50 was in the range of 100 to 1000 nM at Hsp90, 1000 to 10000 nM in data set [1] (setting [3]) and 100 to 1000 nM in data set [2] (setting [4]).
As to `CCNC(=O)c1noc(-c2cc(Cl)c(O)cc2O)c1NC(=O)c1cc(OC)c(OC)c(OC)c1` [Example 4, 5-(5-chloro-2,4-dihydroxy-phenyl)-4-(3,4,5-trimethoxy-benzoylamino)-isoxazole-3-carboxylic acid ethylamide], the IC50 (on Hsp90; in data set [1] (setting [3]); in data set [2] (setting [4])) was 100 to 1000 nM each time.
For `CCNC(=O)c1noc(-c2cc(Cl)c(O)cc2O)c1NC(=O)C(C)(C)C` [Example 5, 5-(5-chloro-2,4-dihydroxy-phenyl)-4-(2,2-dimethyl-propionylamino)-isoxazole-3-carboxylic acid ethylamide], the figures for the IC50 (on Hsp90; in data set [1] (setting [3]); in data set [2] (setting [4])) were under 100 nM, 100 to 1000 nM and under 100 nM, respectively.
As to `CCNC(=O)c1noc(-c2cc(Cl)c(O)cc2O)c1NC(=O)C12CC3CC(CC(C3)C1)C2` [Example 6, 4-[(adamantane-1-carbonyl)-amino]-5-(5-chloro-2,4-dihydroxy-phenyl)-isoxazole-3-carboxylic acid ethylamide], the IC50 (on Hsp90; in data set [1] (setting [3]); in data set [2] (setting [4])) was 100 to 1000 nM in each case.
In the case of `C=CC(=O)Nc1c(C(=O)NCC)noc1-c1cc(Cl)c(O)cc1O` [Example 7, 4-acryloylamino-5-(5-chloro-2,4-dihydroxy-phenyl)-isoxazole-3-carboxylic acid ethylamide], the IC50 at Hsp90 was 100 to 1000 nM; in data set [1] (setting [3]), 1000 to 10000 nM; in data set [2] (setting [4]), 100 to 1000 nM.
On to `CCNC(=O)c1noc(-c2cc(Cl)c(O)cc2O)c1NC(=O)c1sccc1C` [Example 8, 5-(5-chloro-2,4-dihydroxy-phenyl)-4-[(3-methyl-thiophene-2-carbonyl)-amino]-isoxazole-3-carboxylic acid ethylamide], for which the IC50 at Hsp90 is under 100 nM; in data set [1] (setting [3]) it was 100 to 1000 nM; in data set [2] (setting [4]), under 100 nM.
On to `CCNC(=O)c1noc(-c2cc(Cl)c(O)cc2O)c1NC(=O)CCN1CCOCC1` [Example 9, 5-(5-chloro-2,4-dihydroxy-phenyl)-4-(3-morpholin-4-yl-propionylamino)-isoxazole-3-carboxylic acid ethylamide], for which the half-inhibitory concentration (IC50) (on Hsp90; in data set [1] (setting [3]); in data set [2] (setting [4])) was 100 to 1000 nM each time.
For `CCNC(=O)c1noc(-c2cc(Cl)c(O)cc2O)c1NC(=O)c1ccc(Br)cc1` [Example 10, 4-(4-bromo-benzoylamino)-5-(5-chloro-2,4-dihydroxy-phenyl)-isoxazole-3-carboxylic acid ethylamide], the IC50 at Hsp90 lay within 100 to 1000 nM; in data set [1] (setting [3]) it was 1000 to 10000 nM; in data set [2] (setting [4]) it was 100 to 1000 nM.
`CCNC(=O)c1noc(-c2cc(C(C)C)c(O)cc2O)c1NC(=O)c1ccc(OC)cc1` [Example 11, 5-(2,4-dihydroxy-5-isopropyl-phenyl)-4-(4-methoxy-benzoylamino)-isoxazole-3-carboxylic acid ethylamide]: the concentration for half-maximal inhibition (IC50) is 100 to 1000 nM on Hsp90 and under 100 nM in data set [1] (setting [3]).
Taken in the same sequence, the figures for `CCNC(=O)c1noc(-c2cc(C(C)C)c(O)cc2O)c1NC(C)=O` [Example 12, 4-acetylamino-5-(2,4-dihydroxy-5-isopropyl-phenyl)-isoxazole-3-carboxylic acid ethylamide] were under 100 nM and under 100 nM.
In the case of `CCNC(=O)c1noc(-c2cc(C(C)C)c(O)cc2O)c1NC(=O)C(C)(C)C` [Example 13, 5-(2,4-dihydroxy-5-isopropyl-phenyl)-4-(2,2-dimethyl-propionylamino)-isoxazole-3-carboxylic acid ethylamide], the 50% inhibitory concentration (IC50) (at Hsp90; in data set [1] (setting [3])) was under 100 nM throughout.
With `CCNC(=O)c1noc(-c2cc(C(C)C)c(O)cc2O)c1NC(=O)c1sccc1C` [Example 14, 5-(2,4-dihydroxy-5-isopropyl-phenyl)-4-[(3-methyl-thiophene-2-carbonyl)-amino]-isoxazole-3-carboxylic acid ethylamide], the IC50 (at Hsp90; in data set [1] (setting [3]); in data set [2] (setting [4])) was under 100 nM in each case.
Take `CCNC(=O)c1noc(-c2cc(C(C)C)c(O)cc2O)c1NC(=O)CCN1CCOCC1` [Example 15, 5-(2,4-dihydroxy-5-isopropyl-phenyl)-4-(3-morpholin-4-yl-propionylamino)-isoxazole-3-carboxylic acid ethylamide]: the IC50 (on Hsp90; in data set [1] (setting [3])) was 100 to 1000 nM each time.
As to `CCNC(=O)c1noc(-c2cc(C(C)C)c(O)cc2O)c1NC(=O)CCN1CCN(C)CC1` [Example 16, 4-(3-(4-methylpiperazin-1-yl)propanamido)-N-ethyl-5-(2,4-dihydroxy-5-isopropylphenyl)-isoxazole-3-carboxamide], the IC50 at Hsp90 lay in the range of 100 to 1000 nM; in data set [1] (setting [3]), 1000 to 10000 nM; in data set [2] (setting [4]), 100 to 1000 nM.
On to `CCNC(=O)c1noc(-c2cc(C(C)C)c(O)cc2O)c1NC(=O)C1CCC(OC)CC1` (stereo not drawn) [Example 23, 5-(2,4-dihydroxy-5-isopropyl-phenyl)-4-[(4-methoxy-cyclohexanecarbonyl)-amino]-isoxazole-3-carboxylic acid ethylamide], for which the concentration for half-maximal inhibition (IC50) (at Hsp90; in data set [1] (setting [3])) was under 100 nM in each case.
For the compound `CCNC(=O)c1noc(-c2cc(C(C)C)c(O)cc2O)c1NC(=O)C1CCC(C(C)(C)C)CC1` (stereo not drawn) [Example 24, 4-[(4-tert-butyl-cyclohexanecarbonyl)-amino]-5-(2,4-dihydroxy-5-isopropyl-phenyl)-isoxazole-3-carboxylic acid ethylamide], the half-maximal inhibitory concentration (IC50) at Hsp90 is under 100 nM; in data set [1] (setting [3]), 100 to 1000 nM.
Taken in the same sequence, the figures for `CCNC(=O)c1noc(-c2cc(C(C)C)c(O)cc2O)c1NC(=O)[C@H]1CC[C@H](N)CC1` [Example 25, 4-[(trans-4-amino-cyclohexanecarbonyl)-amino]-5-(2,4-dihydroxy-5-isopropyl-phenyl)-isoxazole-3-carboxylic acid ethylamide hydrochloride] were under 100 nM and 1000 to 10000 nM.
On to `CCNC(=O)c1noc(-c2cc(C(C)C)c(O)cc2O)c1NC(=O)[C@H]1CC[C@H](CN)CC1` [Example 26, 4-[(trans-4-aminomethyl-cyclohexanecarbonyl)-amino]-5-(2,4-dihydroxy-5-isopropyl-phenyl)-isoxazole-3-carboxylic acid ethylamide hydrochloride], for which the IC50 on Hsp90 is under 100 nM; in data set [1] (setting [3]) it was 1000 to 10000 nM.
As to `COc1ccc(C(=O)Nc2c(C(=O)N3CC(F)(F)C3)noc2-c2cc(Cl)c(O)cc2O)cc1` [Example 34, 4-(4-methoxybenzamido)-5-(5-chloro-2,4-dihydroxyphenyl)-isoxazol-3-yl-(3,3-difluoroazetidin-lyl)-methanone], the IC50 in data set [1] (setting [3]) and in data set [2] (setting [4]) was over 10000 nM throughout.
